Here are results for ten molecules from US5776899A, “Polypeptide and anti-HIV agent prepared therefrom” (Seikagaku Corporation, priority 1993, dated 1998).

In brackets after ≈: the same amount, converted by molar mass. Entries after “also recorded” stand apart in the source; their conditions may differ. Positions of bridges follow the written chain, without caps; N, C: chain ends. Non-standard residues stand in square brackets, D forms with d. Residues, ends and D or L forms follow the SMILES beside them. *: point of attachment. FITC = O=C1OC2(c3ccc(O)cc3Oc3cc(O)ccc32)c2ccc(NC(=S)*)cc21; Myristoyl = CCCCCCCCCCCCCC(=O)*; dOrn = NCCC[C@@H](N)C(=O)O; GABA = NCCCC(=O)O

Data set [1] has as its system human immunodeficiency virus (HIV). Put plainly: Antiviral activity against HIV in HIV-infected MT-4 cells (MTT method). The data set is classed as cell-based. As to conditions: for SI: rough ratio CC50/EC50. The protocol:
(§1) HIV-infected MT-4 cells (2.5×10^4 cells/well, multiplicity of infection (MOI): 0.001) immediately after infection were added together with the test substance with various changes of the concentration to a 96-well microtitre plate. After incubation at 37° C. for 5 days in a CO2 incubator, the number of survivor cells was measured by the MTT method [Pauwels et al.; J. Virol. […] On the other hand, in order to know the cytotoxicity of the test substance on the MT-4 cells, virus-non-infected cells were incubated, likewise as above, together with the test compound with various changes of the concentration. […] Further, the rough ratio of CC50 to EC50, (CC50 /EC50) is expressed as an effective ratio (SI).
(Tetrazolium assays rely on reduction of a dye to a coloured formazan, in cell work by metabolically active cells.)

In a further data set the test system is MT-4 cells. Nature of the data set: Cytotoxicity on virus-non-infected MT-4 cells (MTT method). In kind it is cell-based. Here is the method: as §1
Where [2] appears, read: Table 5, method of Example 2, HIV-infected MT-4 cells.
The mark [3] stands for this setting: Table 5, method of Example 2, virus-non-infected MT-4 cells.
[4] abbreviates: Table 4, HIV-infected MT-4 cells, MOI 0.001, 5 days.
The mark [5] stands for this setting: Table 4, virus-non-infected MT-4 cells, 5 days.

One may read the EC50 as the concentration giving half of the maximal effect. Broadly, the CC50 is the concentration giving 50% cytotoxicity. For `CCCCCCCCCCCCCC(=O)N[C@@H](CCCNC(=N)N)C(=O)N[C@@H](CCCNC(=N)N)C(=O)N[C@@H](Cc1c[nH]c2ccccc12)C(=O)N[C@H]1CSSC[C@@H](C(=O)N[C@@H](CCCNC(=N)N)C(N)=O)NC(=O)[C@H](CCCCN)NC(=O)[C@H](CCCNC(=N)N)NC(=O)[C@H](Cc2ccc(O)cc2)NC(=O)[C@@H]2CCCN2C(=O)[C@@H](CCCCN)NC(=O)[C@H](CCCCN)NC(=O)[C@H](CCCNC(=N)N)NC(=O)[C@H](Cc2ccc(O)cc2)NC1=O` [Polypeptide (17), Myr--Arg--Arg --Trp--Cys--Tyr--Arg--Lys --DLys--Pro --Tyr--Arg--Lys--Cys--Arg--NH2] (Myristoyl-RRWCYRK[dK]PYRKCR-NH2; disulfide 4-13), in data set [1] (Table 5), the “SI (CC50/EC50)” value worked out at 1838. The same molecule returned an EC50 in data set [1] (setting [2]) of 0.055 µg/mL (≈ 0.0249 µM). This molecule also showed a CC50 with MT-4 cells (setting [3]) of 106.60 µg/mL (≈ 48.3 µM).

Consider `N=C(N)NCCC[C@H](NC(=O)[C@@H]1CSSC[C@H](NC(=O)[C@H](Cc2c[nH]c3ccccc23)NC(=O)[C@H](CCCNC(=N)N)NC(=O)[C@@H](N)CCCNC(=N)N)C(=O)N[C@@H](Cc2ccc(O)cc2)C(=O)N[C@@H](CCCNC(=N)N)C(=O)N[C@@H](CCCCN)C(=O)N[C@@H](CCCCN)C(=O)NCC(=O)N[C@@H](Cc2ccc(O)cc2)C(=O)N[C@@H](CCCNC(=N)N)C(=O)N[C@@H](CCCCN)C(=O)N1)C(N)=O` [Polypeptide (3), Arg--Arg --Trp--Cys--Tyr--Arg--Lys --Lys--Gly --Tyr--Arg--Lys--Cys--Arg--NH2] (H-RRWCYRKKGYRKCR-NH2; disulfide 4-13), for which, in data set [1] (Table 5), the “SI (CC50/EC50)” value is 3477. The molecule also yielded an EC50 in data set [1] (setting [2]) of 0.057 µg/mL (≈ 0.0291 µM). In the data set on MT-4 cells (setting [3]), this molecule yielded a CC50 of 198.18 µg/mL (≈ 101 µM).

Turning to `N=C(N)NCCC[C@H](NC(=O)[C@@H]1CSSC[C@H](NC(=O)[C@H](Cc2c[nH]c3ccccc23)NC(=O)[C@H](CCCNC(=N)N)NC(=O)[C@@H](N)CCCNC(=N)N)C(=O)N[C@@H](Cc2ccc(O)cc2)C(=O)N[C@@H](CCCNC(=N)N)C(=O)N[C@@H](CCCCN)C(=O)N[C@H](CCCN)C(=O)N2CCC[C@H]2C(=O)N[C@@H](Cc2ccc(O)cc2)C(=O)N[C@@H](CCCNC(=N)N)C(=O)N[C@@H](CCCCN)C(=O)N1)C(N)=O` [Polypeptide (6), Arg--Arg --Trp--Cys--Tyr--Arg--Lys --DOrn--Pro --Tyr--Arg--Lys--Cys--Arg--NH2] (H-RRWCYRK[dOrn]PYRKCR-NH2; disulfide 4-13), the “SI (CC50/EC50)” value in data set [1] (Table 5) was determined as 2728. In addition, the CC50 in the data set with MT-4 cells (setting [3]) was 55.93 µg/mL (≈ 28.2 µM).

Molecule `N=C(N)NCCC[C@H](NC(=O)[C@@H]1CSSC[C@H](NC(=O)[C@H](Cc2c[nH]c3ccccc23)NC(=O)[C@H](CCCNC(=N)N)NC(=O)[C@@H](N)CCCNC(=N)N)C(=O)N[C@@H](Cc2ccc(O)cc2)C(=O)N[C@@H](CCCNC(=N)N)C(=O)N[C@@H](CCCCN)C(=O)N[C@H](CCCCNC(=O)CN)C(=O)N2CCC[C@H]2C(=O)N[C@@H](Cc2ccc(O)cc2)C(=O)N[C@@H](CCCNC(=N)N)C(=O)N[C@@H](CCCCN)C(=O)N1)C(N)=O` (H-RRWCYRK[dK](Gly)PYRKCR-NH2; disulfide 4-13) came in with an EC50 in data set [1] (setting [2]) of 0.03 µg/mL (≈ 0.0146 µM). In the data set on MT-4 cells (setting [3]), this molecule showed a CC50 of 44.26 µg/mL (≈ 21.6 µM).

For the molecule `CC(=O)N[C@@H](CCCNC(=N)N)C(=O)N[C@@H](CCCNC(=N)N)C(=O)N[C@@H](Cc1c[nH]c2ccccc12)C(=O)N[C@H]1CSSC[C@@H](C(=O)N[C@@H](CCCNC(=N)N)C(N)=O)NC(=O)[C@H](CCCCN)NC(=O)[C@H](CCCNC(=N)N)NC(=O)[C@H](Cc2ccc(O)cc2)NC(=O)[C@@H]2CCCN2C(=O)[C@@H](CCCCN)NC(=O)[C@H](CCCCN)NC(=O)[C@H](CCCNC(=N)N)NC(=O)[C@H](Cc2ccc(O)cc2)NC1=O` [Polypeptide (14), Ac--Arg--Arg --Trp--Cys--Tyr--Arg--Lys --DLys--Pro --Tyr--Arg--Lys--Cys--Arg--NH2] (Ac-RRWCYRK[dK]PYRKCR-NH2; disulfide 4-13), the “SI (CC50/EC50)” value in data set [1] (Table 5) is given as 3256. Also, the EC50 in data set [1] (setting [2]) stood at 0.024 µg/mL (≈ 0.0118 µM). In the data set with MT-4 cells (setting [3]), this molecule yielded a 50% cytotoxic concentration (CC50) of 78.14 µg/mL (≈ 38.3 µM).

As to `N=C(N)NCCC[C@H](NC(=O)[C@@H]1CSSC[C@H](NC(=O)[C@H](Cc2c[nH]c3ccccc23)NC(=O)[C@H](CCCNC(=N)N)NC(=O)[C@@H](N)CCCNC(=N)N)C(=O)N[C@@H](Cc2ccc(O)cc2)C(=O)N[C@@H](CCCNC(=N)N)C(=O)N[C@@H](CCCCN)C(=O)N[C@H](CCCCNC(=O)CCCN)C(=O)N2CCC[C@H]2C(=O)N[C@@H](Cc2ccc(O)cc2)C(=O)N[C@@H](CCCNC(=N)N)C(=O)N[C@@H](CCCCN)C(=O)N1)C(N)=O` (H-RRWCYRK[dK](GABA)PYRKCR-NH2; disulfide 4-13), the “SI (CC50/EC50)” value in data set [1] (Table 5) was determined as 11095. Further, the EC50 in data set [1] (setting [2]) came out at 0.0165 µg/mL (≈ 0.00793 µM). The same molecule showed a CC50 in the data set on MT-4 cells (setting [3]) of 138.07 µg/mL (≈ 66.3 µM).

For `N=C(N)NCCC[C@H](NC(=O)[C@@H]1CSSC[C@H](NC(=O)[C@H](Cc2c[nH]c3ccccc23)NC(=O)[C@H](CCCNC(=N)N)NC(=O)[C@@H](N)CCCNC(=N)N)C(=O)N[C@@H](Cc2ccc(O)cc2)C(=O)N[C@@H](CCCNC(=N)N)C(=O)N[C@@H](CCCCN)C(=O)N2CCC[C@H]2C(=O)N[C@H](CCCCN)C(=O)N[C@@H](Cc2ccc(O)cc2)C(=O)N[C@@H](CCCNC(=N)N)C(=O)N[C@@H](CCCCN)C(=O)N1)C(N)=O` [Polypeptide (5), Arg--Arg --Trp--Cys--Tyr--Arg--Lys --Pro--DLys --Tyr--Arg--Lys--Cys--Arg--NH2] (H-RRWCYRKP[dK]YRKCR-NH2; disulfide 4-13), the “SI (CC50/EC50)” value in data set [1] (Table 5) amounted to 1321. The molecule further yielded a half-maximal effective concentration (EC50) in data set [1] (setting [2]) of 0.076 µg/mL (≈ 0.0381 µM). The molecule also returned a CC50 in the data set with MT-4 cells (setting [3]) of 101.20 µg/mL (≈ 50.7 µM).

With `N=C(N)NCCC[C@H](NC(=O)[C@@H]1CSSC[C@H](NC(=O)[C@H](Cc2c[nH]c3ccccc23)NC(=O)[C@H](CCCNC(=N)N)NC(=O)[C@H](CCCNC(=N)N)NC(=S)Nc2ccc3c(c2)C(=O)OC32c3ccc(O)cc3Oc3cc(O)ccc32)C(=O)N[C@@H](Cc2ccc(O)cc2)C(=O)N[C@@H](CCCNC(=N)N)C(=O)N[C@@H](CCCCN)C(=O)N[C@H](CCCCN)C(=O)N2CCC[C@H]2C(=O)N[C@@H](Cc2ccc(O)cc2)C(=O)N[C@@H](CCCNC(=N)N)C(=O)N[C@@H](CCCCN)C(=O)N1)C(N)=O` [Polypeptide (19), FTC--Arg--Arg --Trp--Cys--Tyr--Arg--Lys --DLys--Pro --Tyr--Arg--Lys--Cys--Arg--NH2] ({FITC}-RRWCYRK[dK]PYRKCR-NH2; disulfide 4-13), the “SI (CC50/EC50)” value in data set [1] (Table 5) came to 39285. In addition, the CC50 in the data set on MT-4 cells (setting [3]) stood at 38.47 µg/mL (≈ 16.1 µM).

`N=C(N)NCCC[C@H](NC(=O)[C@@H]1CSSC[C@H](NC(=O)[C@H](Cc2c[nH]c3ccccc23)NC(=O)[C@H](CCCNC(=N)N)NC(=O)[C@@H](N)CCCNC(=N)N)C(=O)N[C@@H](Cc2ccc(O)cc2)C(=O)N[C@@H](CCCNC(=N)N)C(=O)N[C@@H](CCCCN)C(=O)N[C@H]2CSSC[C@H](NC(=O)[C@H](Cc3ccc(O)cc3)NC(=O)CNC(=O)[C@H](CCCCN)NC(=O)[C@H](Cc3ccc(O)cc3)NC2=O)C(=O)N[C@@H](Cc2ccc(O)cc2)C(=O)N[C@@H](CCCNC(=N)N)C(=O)N[C@@H](CCCCN)C(=O)N1)C(N)=O` [Polypeptide T-22, reference compound] (H-RRWCYRKCYKGYCYRKCR-NH2; disulfide 4-17, 8-13 (inferred); N-terminus assumed): the EC50 in data set [1] (setting [4]) amounted to 0.0099 µg/mL (≈ 0.00398 µM); in data set [1] (setting [2]) it was 0.017 µg/mL (≈ 0.00684 µM). Moreover, the SI in data set [1] (Table 4) is reported as 5,465. The figures for the CC50 in the data set on MT-4 cells (setting [5]) and in the data set on MT-4 cells (setting [3]) were 54.1 µg/mL (≈ 21.8 µM) and 49.4 µg/mL (≈ 19.9 µM), respectively.

For `N=C(N)NCCC[C@H](NC(=O)[C@@H]1CSSC[C@H](NC(=O)[C@H](Cc2c[nH]c3ccccc23)NC(=O)[C@H](CCCNC(=N)N)NC(=O)[C@@H](N)CCCNC(=N)N)C(=O)N[C@@H](Cc2ccc(O)cc2)C(=O)N[C@@H](CCCNC(=N)N)C(=O)N[C@@H](CCCCN)C(=O)N[C@H](CCCCN)C(=O)N2CCC[C@H]2C(=O)N[C@@H](Cc2ccc(O)cc2)C(=O)N[C@@H](CCCNC(=N)N)C(=O)N[C@@H](CCCCN)C(=O)N1)C(N)=O` [Polypeptide (1), Arg--Arg--Trp--Cys--Tyr--Arg--Lys--DLys--Pro--Tyr--Arg--Lys--Cys--Arg--NH2] (H-RRWCYRK[dK]PYRKCR-NH2; disulfide 4-13), the concentration giving a half-maximal response (EC50) in data set [1] (setting [4]) was 0.0034 µg/mL (≈ 0.0017 µM); in data set [1] (setting [2]), 0.0195 µg/mL (≈ 0.00977 µM). In addition, in data set [1] (Table 4), the SI was 14,647. In addition, the “SI (CC50/EC50)” value in data set [1] (Table 5) amounted to 3352. The “anti-HIV activity compared with reference compound (in words)” value in data set [1] (text comment on the anti-HIV results) is given as “one-third the concentration of T-22; also recorded: slightly higher”. Moreover, the results for the 50% cytotoxic concentration (CC50) in the data set on MT-4 cells (setting [5]) and with MT-4 cells (setting [3]) were 49.8 µg/mL (≈ 24.9 µM) and 65.37 µg/mL (≈ 32.7 µM), respectively. Further, in the data set with MT-4 cells (text comment on Table 4), the “cytotoxicity compared with reference compound (in words)” value is “the same cytotoxicity as that of T-22; also recorded: extremely low cytotoxicity”.
